Calls of active or inactive are those of the source. No cut-off for these calls is given here.
Columns and labels:
Adenosine receptor A2a [1] = molecular target: T1, Adenosine receptor A2a (Cavia porcellus, UniProt P46616); assay: biochemical
Description: (§1) Antagonist binding of N6-cyclohexyl-[3H]-adenosine to guinea pig brain

Adenosine receptor A1 = molecular target: T2, Adenosine receptor A1 (Bos taurus, UniProt P28190)
T2 sequence (P28190 whole entry): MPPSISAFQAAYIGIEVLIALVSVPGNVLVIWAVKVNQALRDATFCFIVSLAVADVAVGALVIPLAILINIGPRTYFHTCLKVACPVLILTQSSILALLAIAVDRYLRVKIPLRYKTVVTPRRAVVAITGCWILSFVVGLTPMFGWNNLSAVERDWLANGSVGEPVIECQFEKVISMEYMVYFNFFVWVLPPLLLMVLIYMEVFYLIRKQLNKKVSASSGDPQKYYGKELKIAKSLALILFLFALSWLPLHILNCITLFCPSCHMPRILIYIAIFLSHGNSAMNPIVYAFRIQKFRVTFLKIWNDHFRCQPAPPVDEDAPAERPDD

[2] = molecular target: T3, Adenosine receptor A1 (Homo sapiens) (UniProt P30542); details: brain
T3 sequence (whole entry): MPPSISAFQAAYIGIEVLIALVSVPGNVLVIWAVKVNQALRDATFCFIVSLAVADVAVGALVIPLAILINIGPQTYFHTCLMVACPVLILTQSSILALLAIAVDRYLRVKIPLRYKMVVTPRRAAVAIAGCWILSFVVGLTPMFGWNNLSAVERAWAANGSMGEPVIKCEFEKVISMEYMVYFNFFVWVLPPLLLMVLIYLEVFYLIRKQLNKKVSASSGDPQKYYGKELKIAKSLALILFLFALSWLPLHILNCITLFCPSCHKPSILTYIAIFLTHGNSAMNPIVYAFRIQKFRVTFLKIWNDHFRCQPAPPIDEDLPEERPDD

[3] = molecular target: T4, Adenosine receptor (Homo sapiens) (UniProt P30542+P29275+P0DMS8+P29274)
T4 sequence (P0DMS8 whole entry, looked up, one chain of several): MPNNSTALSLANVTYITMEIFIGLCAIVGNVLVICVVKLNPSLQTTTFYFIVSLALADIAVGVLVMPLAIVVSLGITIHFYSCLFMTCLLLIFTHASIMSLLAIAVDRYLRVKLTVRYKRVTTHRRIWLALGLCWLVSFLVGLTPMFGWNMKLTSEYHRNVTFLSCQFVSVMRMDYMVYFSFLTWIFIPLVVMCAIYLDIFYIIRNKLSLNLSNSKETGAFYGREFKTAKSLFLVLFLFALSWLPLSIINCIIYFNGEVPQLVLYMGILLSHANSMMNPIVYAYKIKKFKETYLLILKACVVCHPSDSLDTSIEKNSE
T4 sequence (P29274 whole entry, looked up, one chain of several): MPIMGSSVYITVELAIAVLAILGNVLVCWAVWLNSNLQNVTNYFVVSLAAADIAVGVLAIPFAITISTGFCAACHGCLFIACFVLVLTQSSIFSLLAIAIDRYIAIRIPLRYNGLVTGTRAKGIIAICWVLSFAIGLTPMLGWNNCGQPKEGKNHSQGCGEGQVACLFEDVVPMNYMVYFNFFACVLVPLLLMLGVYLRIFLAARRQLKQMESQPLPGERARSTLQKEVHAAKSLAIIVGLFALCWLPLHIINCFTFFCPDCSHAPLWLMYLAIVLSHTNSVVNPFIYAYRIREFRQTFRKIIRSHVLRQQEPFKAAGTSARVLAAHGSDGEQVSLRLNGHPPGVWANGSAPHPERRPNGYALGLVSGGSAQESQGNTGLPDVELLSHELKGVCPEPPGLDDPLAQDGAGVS
T4 sequence (P29275 whole entry, looked up, one chain of several): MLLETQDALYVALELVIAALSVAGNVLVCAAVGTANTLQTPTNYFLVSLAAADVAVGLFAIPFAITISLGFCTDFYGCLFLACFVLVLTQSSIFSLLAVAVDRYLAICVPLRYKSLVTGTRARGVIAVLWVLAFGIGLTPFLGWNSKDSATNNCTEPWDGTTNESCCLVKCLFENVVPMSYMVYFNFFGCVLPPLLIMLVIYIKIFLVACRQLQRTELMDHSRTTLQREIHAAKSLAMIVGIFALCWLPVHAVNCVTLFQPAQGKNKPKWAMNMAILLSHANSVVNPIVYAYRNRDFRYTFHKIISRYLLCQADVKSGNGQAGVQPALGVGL

[4] = molecular target: T5, Adenosine A2 receptor (Homo sapiens) (UniProt P29275+P29274); details: brain
[5] = molecular target: T5, Adenosine A2 receptor (Homo sapiens); details: brain; remark: listed apart in the source
[6] = molecular target: T4, Adenosine receptor (Homo sapiens); remark: listed apart in the source
[7] = molecular target: T3, Adenosine receptor A1 (Homo sapiens); assay: Affinity constant for inhibition of A1 receptor control of adenylate cyclase in adipocytes, heart and brain cells; Inactive; assay type: functional, cell-based
[8] = molecular target: T5, Adenosine A2 receptor (Homo sapiens); assay: Affinity constant for A2 receptor control of adenylate cyclase in adipocytes, heart and brain cells; Inactive; assay type: functional, cell-based
Adenosine receptor A2a [9] = molecular target: T1, Adenosine receptor A2a; assay: biochemical; remark: listed apart in the source
Description: as §1

Adenosine receptor [10] = molecular target: T6, Adenosine receptor (Rattus norvegicus, UniProt P29276+P25099+P30543+P28647); assay type: functional
Adenosine receptor [11] = molecular target: T6, Adenosine receptor; assay: Antagonist binding of rN6-cyclohexyl-[3H]adenosine to rat brain; assay type: functional
Adenosine receptor [12] = molecular target: T6, Adenosine receptor
Description: Antagonist binding of L-N6-phenyl-isopropyl)-[3H]adenosine to rat fat

T1 sequence (P46616 whole entry): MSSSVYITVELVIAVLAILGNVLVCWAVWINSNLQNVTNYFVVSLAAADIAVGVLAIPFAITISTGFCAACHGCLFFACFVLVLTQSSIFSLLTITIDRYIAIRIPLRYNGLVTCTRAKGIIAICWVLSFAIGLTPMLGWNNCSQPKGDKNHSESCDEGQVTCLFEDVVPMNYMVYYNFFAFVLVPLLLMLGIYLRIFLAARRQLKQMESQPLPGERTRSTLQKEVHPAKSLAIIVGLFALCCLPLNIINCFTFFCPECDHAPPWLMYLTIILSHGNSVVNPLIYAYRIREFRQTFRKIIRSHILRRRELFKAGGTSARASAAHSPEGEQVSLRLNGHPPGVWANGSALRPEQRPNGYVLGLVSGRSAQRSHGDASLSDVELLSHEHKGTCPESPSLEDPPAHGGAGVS

| SMILES | Ki (Adenosine receptor A2a [1]) [nM] | Ki (Adenosine receptor A1) [nM] | Affinity constant [2] [µM] | Affinity constant [5] [µM] | Affinity constant [6] | further results |
| --- | --- | --- | --- | --- | --- | --- |
| Nc1ncnc2c1ncn2[C@@H]1O[C@H](C(=O)NC2CC2)[C@@H](O)[C@H]1O | 8 |  |  |  |  |  |
| Nc1nc(Cl)nc2c1ncn2[C@@H]1O[C@H](CO)[C@@H](O)[C@H]1O | 8 | 25 | 0.01 |  |  | Affinity constant [3]: inactive; Affinity constant [4]: 5 µM |
| OC[C@H]1O[C@@H](n2cnc3c(NC4CCCCC4)ncnc32)[C@H](O)[C@@H]1O |  | 2.5 | 0.003 | 30 | inactive |  |
| CCNC(=O)[C@H]1O[C@@H](n2cnc3c(N)ncnc32)[C@H](O)[C@@H]1O |  |  | 0.1 |  |  |  |
| CNc1ncnc2c1ncn2[C@@H]1O[C@H](CO)[C@@H](O)[C@H]1O |  |  | 0.1 | 80 |  |  |
| CSC[C@H]1O[C@@H](n2cnc3c(N)ncnc32)[C@H](O)[C@@H]1O |  |  |  | 10 |  |  |
| C[C@@H]1O[C@H](n2cnc3c(N)ncnc32)C[C@H]1O |  |  |  |  | 2 µM | Affinity constant [7]: inactive; Affinity constant [8]: inactive |
| OC[C@H]1O[C@@H](n2cnc3c(NCc4ccccc4)ncnc32)[C@H](O)[C@@H]1O |  |  | 0.2 | 80 | inactive |  |
| OC[C@H]1O[C@@H](n2cnc3c(Nc4ccccc4)ncnc32)[C@H](O)[C@@H]1O |  |  | 0.003 | 50 | inactive |  |
| Cn1c(=O)c2[nH]c(-c3ccccc3)nc2n(C)c1=O [8-PHENYL THEOPHYLLINE] | 400 |  |  |  |  |  |
| C[C@H](Cc1ccccc1)Nc1ncnc2c1ncn2[C@@H]1O[C@H](CO)[C@@H](O)[C@H]1O [(R)-PIA] |  | 0.25 | 0.003 | 30 | inactive | Ki (Adenosine receptor A2a [9]): 3.3 nM |
| C[C@@H](Cc1ccccc1)Nc1ncnc2c1ncn2[C@@H]1O[C@H](CO)[C@@H](O)[C@H]1O [(S)-PIA] | 130 | 8 | 0.2 | 100 | inactive |  |
| Cn1c(=O)c2c(ncn2C)n(C)c1=O [CAFFEINE] |  | 130000 | 30 | 30 | inactive |  |
| CC(C)Cn1c(=O)n(C)c(=O)c2[nH]cnc21 [ISOBUTYLMETHYLXANTHINE] | 8000 | 7000 |  |  |  |  |
| CC(C)Cn1c(=O)n(C)c(=O)c2nc[nH]c21 [ISOBUTYLMETHYLXANTHINE] |  |  | 2 | 5 | inactive | Ki (Adenosine receptor [10]): 800 nM; Ki (Adenosine receptor [11]): 3000 nM; Ki (Adenosine receptor [12]): 20000 nM |

— ChEMBL document CHEMBL1122012, “Adenosine receptors: targets for future drugs” (J Med Chem, 1982)
